{"source": "patent US20250288572A1", "about": "“COMPOSITIONS AND METHODS FOR TREATING PULMONARY VASCULAR DISEASE” (UNIVERSITY OF PITTSBURGH-OF THE COMMONWEALTH SYSTEM OF …, priority 2022, published 2025)", "molecules": {"B1": {"name": "rhGal8: recombinant human LGALS8 (galectin-8), R&D Systems 1305-GA-050 (protein, UniProt O00214 1-317, looked up)", "Galectin-8": "MMLSLNNLQNIIYNPVIPFVGTIPDQLDPGTLIVIRGHVPSDADRFQVDLQNGSSMKPRADVAFHFNPRFKRAGCIVCNTLINEKWGREEITYDTPFKREKSFEIVIMVLKDKFQVAVNGKHTLLYGHRIGPEKIDTLGIYGKVNIHSIGFSFSSDLQSTQASSLELTEISRENVPKSGTPQLRLPFAARLNTPMGPGRTVVVKGEVNANAKSFNVDLLAGKSKDIALHLNPRLNIKAFVRNSFLQESWGEEERNITSFPFSPGMYFEMIIYCDVREFKVAVNGVHSLEYKHRFKELSSIDTLEINGDIHLLEVRSW"}}, "key": {"[1]": {"tested_on": "rats with PAH due to monocrotaline exposure", "test": "Monocrotaline PAH rats, glutaminase inhibitors daily i.p. Days 7-21 (Example 2)", "assay_type": "in vivo", "settings": "MCT rats; for Fulton index / right ventricular systolic pressure (RVSP): 10 mg/kg daily i.p. Days 7-21, vs vehicle control", "experimental": "In rats with PAH due to monocrotaline exposure, daily i.p, delivery of CB-839 (10 mg/kg) vs. UPGL00064 (10 mg/kg) vs. vehicle control was performed from Days 7-21 post-monocrotaline exposure. […] Error bars represent ±SEM. […] In rats with PAH due to monocrotaline exposure, daily i.p. delivery of CB-839 (10 mg/kg) vs. UPGL000064 (10 mg/kg) vs. vehicle control was performed from Days 7-21 post-monocrotaline exposure. […] Error bars represent ±SEM."}, "PAECs [2]": {"tested_on": "PAECs", "test": "RT-qPCR gene expression in PAECs", "assay_type": "cell-based, human", "settings": "for expression of Cluster 15 members (SLC9A3R1, LGALS3): IL-1β-induced expression changes", "experimental": "(§1) The hypoxia chamber (modular incubator chamber) was obtained from Billups-Rothenberg Inc. (Del Mar, Cali) and placed in regulated CO2 incubator at 37° C.\nRT-qPCR analysis: Cells were lysis in 1 ml of QiaZol reagent (Qiagen). Total RNA content was extracted using the RNeasy kit (Qiagen), according to the manufacturer's instructions. Total RNA concentration was determined using a BioTek Synergy multimode plate reader. Messenger RNAs were reverse transcribed to generate cDNA using the Multiscript RT kit (Thermo Fisher Scientific). cDNA for specific gene targets was amplified and quantified via fluorescently-labeled Taqman primer sets and Taqman fast advanced master mix (Thermo Fisher Scientific) using an Applied Biosystems QuantStudio 6 Flex Real-Time PCR System."}, "[3]": {"tested_on": "hypoxia-induced pulmonary hypertension mice", "test": "Hypoxia-induced (Group 3) pulmonary hypertension mouse model", "source_text": "Animal models: For the hypoxia-induced pulmonary hypertension mice, male C57BL/6J mice (8 weeks old) (RRID:IMSR_JAX:000664) were purchased from Jackson laboratory and acclimatized for 3-4 days in this facility. Subsequently, mice scheduled for normoxic vs. hypoxic exposure were maintained in either normoxia or a normobaric hypoxia chamber for 1 or 3 weeks (OxyCycler, Biospherix Ltd.), where consistent exposure to 10% oxygen and control for temperature and humidity were possible.\nI-BET was dissolved in DMSO at 100× concentration and then made into a working solution in 20% PEG400 and 80% 1×PBS.\nMale and female 8 week old Lgals8−/− mice were exposed to hypoxia for 3 weeks. Littermates were used as wildtype (WT) control when comparing with knockout mice.\nImmunofluorescent staining: Cryostat sections were cut from OCT-embedded lung tissues at 5-10 μm and mounted on gelatin-coated histological slides. Slides were thawed at room temperature for 10-20 min and rehydrated in wash buffer for 10 minutes. All sections were blocked in 10% donkey scrum and exposed to primary antibody and Alexa 488, 568 and 647-conjugated secondary antibodies (Thermo Fisher Scientific). The following primary antibodies were used: Lgals8 (Ab69631, Abcam; 1/2200), IL-1 (ab9722, Abcam; 1%200), GSTP1 (ab153949, Abcam; 1:100), ISCU (14812-1-AP, Proteintech; 1:100), cleaved caspase 3 (cs-9661, Cell Signaling; 1/400), α-SMA (F3777, Sigma; I/200) and CD31 (ab7388, Abcam: 1/200). Images were obtained using Nikon A1 confocal microscope with 40× objective. Small pulmonary vessels (10 vessels/section) that were not associated with bronchial airways were selected for analysis. Intensity of staining was quantified using ImageJ software (NIH). Degree of pulmonary arteriolar muscularization was assessed in OCT lung sections stained for α-SMA by calculation of the proportion of fully and partially muscularized peripheral (<100 μm diameter) pulmonary arteriole to total peripheral pulmonary arterioles (Bertero T et al. J Clin Invest. 2014, 124, 3514-3528)."}, "[4]": {"tested_on": "SU5416-hypoxic pulmonary arterial hypertension rats", "test": "SU5416-hypoxia pulmonary arterial hypertension rat model, disease-reversal dosing", "assay_type": "in vivo, Sprague-Dawley rats", "settings": "SU5416-hypoxia rats", "experimental": "Briefly, 10 week old male Sprague-Dawley rats were injected i.p. with 20 mg/kg of SU5416 (Sigma), placed in normobaric hypoxia (10% 02) for 3 weeks and then transferred to normoxia for 2 weeks. During hypoxic exposure, chambers were opened twice a week for cleaning and replenishment of food and water. […] For BRD2889 vs. vehicle control dosing, i.p. injections every 5 days (5 mg/kg) were administered during the final two weeks of normoxia. Oxygen concentrations were continuously monitored with blood gas analyzers.\nMeasurement of GST activity: The GST activity from lung tissue and PAECs was assayed using GST assay kit (Cayman, MI, USA) per the manufacturer's instructions.\nRodent echocardiography: Echocardiography was performed using a 15-45M Hz transthoracic transducer and a Visual Sonics Vevo 3100 system (Fujifilm). Inhaled isoflurane anesthesia was used at 2% in 100% 02 during positioning and hair removal and then decreased to isoflurane 0.8% during imaging."}, "PAECs [5]": {"tested_on": "PAECs", "test": "Flow cytometry detection of mitochondrial superoxide (MitoSOX Red) in PAECs", "procedure": "To assess the effect of I-BET under inflammatory conditions, cells were treated with recombinant human IL-1β (10 ng/ml, Peprotech) at about 70-80% confluency for 48 h in complete media along with vehicle control (DMSO, Sigma-41639), I-BET151 (500 nM), 1-BET762 (500 nM) (Selleckchem-S2780/S7189), as indicated.\nFor hypoxia exposure, cells were plated in 6-well cell culture plates at 1×10^5 cells/well, grown for 24 hr and placed into a normobaric hypoxia chamber (1%02) for 24 h under specific treatment conditions. Namely, for I-BET and siLGALS8 exposures, cells were either pre-treated with I-BET/vehicle control (VC) or transfected with siLgals8/Scr for 24 h. Then, they were cultured in basal media at 1% 02. After 24 h, caspase activity and mitochondrial superoxide levels were quantified. To detect activation status of pSTAT1/STAT1 by immunoblot, cells were exposed to 8 h of hypoxia.\nFlow cytometry detection of mitochondria superoxide: For measuring mitochondrial superoxide, cells were incubated with 5 μM of MitoSOX Red mitochondrial superoxide indicator (Thermo Fisher Scientific) for 10 min in 37° C."}, "PAECs [6]": {"tested_on": "PAECs", "test": "Cellular apoptosis, caspase-3/7 activity (Caspase-Glo 3/7) in PAECs", "assay_type": "cell-based, human", "settings": "PAECs", "experimental": "as §1\nCellular apoptosis: Caspase-3/7 activity was quantified using the Caspase-Glo 3/7 Assay (Promega), according to manufacturer's instructions. Caspase-3/7 activity was normalized to total protein content determined by BCA method (Thermo Fisher Scientific)."}, "LGALS8": {"tested_on": "LGALS8", "test": "Immunoblot and densitometry of LGALS8 isoforms in PAECs", "assay_type": "cell-based, human", "settings": "IL-1β, listed as I-BET", "experimental": "(§2) Immunoblot and densitometry: Cells were lysed in RIPA buffer (Sigma) along with 1× protease inhibitor cocktail (Sigma). Protein lysate was resolved by gradient 4%-15% SDS-PAGE gels and transferred onto a 0.2 μm PVDF membrane (Bio-Rad). Membranes were blocked in 5% non-fat milk in 1×PBST buffer for one hour at room temperature. Later, they were incubated in the presence of the primary antibody overnight at 4° C., and then appropriate HRP-conjugated secondary antibodies (Life Technologies). The following antibodies were used: human LGALS8 (AF1305, RnD Systems), mouse/rat Lgals8 ([…], Abcam), pSTAT1 (ab29045, Abcam) and STAT1 (ab47425, Abcam), GSTP1 (ab153949, Abcam), ISCU (14812-1-AP, Pointech), Glutathione (ab19534, Abcam), HIF2A (NB100-122, Novous), α-Tubulin (CP06, Millipore sigma), and ACTB (sc-47778, Santa Cruz). The immunoreactive bands were visualized with the Chemidoc XRS+ system (Bio-Rad) using SuperSignal West Femto chemiluminescent substrates (Thermo Fisher Scientific). The images were later quantified using AlphaEaseFC software (Alpha Innotech)."}, "ISCU": {"tested_on": "ISCU", "test": "Protein stability assay (proteasome inhibitor MG132) in hypoxic PAECs", "assay_type": "cell-based, human", "design": "dose or concentration left out as unconfirmed", "settings": "MG132 (2 h)", "experimental": "Protein stability assay: The proteasome inhibitor MG132 (M7449, Sigma) was stored at −20° C. at a concentration of 10 mM diluted in dimethyl sulfoxide (DMSO). PAECs were exposed to MG132 ([…]) vs. DMSO vehicle control for 2 hr under hypoxia, prior to harvesting of cellular lysate for immunoblotting.\nas §2"}, "[7]": {"settings": "hypoxic mice, I-BET762 30 mg/kg daily oral"}, "[8]": {"settings": "I-BET762 30 mg/kg daily i.p. or BRD2889 5 mg/kg i.p. every 5 days, final 2 weeks"}, "[9]": {"settings": "IL-1β 10 ng/ml 48 h, 500 nM vs vehicle control"}, "[10]": {"settings": "IL-1β 10 ng/ml 48 h, 500 nM vs vehicle control, listed as I-BET"}, "[11]": {"settings": "IL-1β 48 h, I-BET plus rhGal8 24 h (30 nM)"}}, "note": "“Also recorded” adds a separate entry of the source. Where a SMILES comes first, the peptide text is derived from it. The star is where a group is joined. Cbz = O=C(OCc1ccccc1)*"}
{"molecule": "O=C(Cc1cccc(OC(F)(F)F)c1)Nc1ccc(CCCCc2nnc(NC(=O)Cc3ccccn3)s2)nn1", "note": "[CB-839, reference compound]", "values": [{"measurement": "Fulton index", "setting": "[1]", "value": "significantly decreased"}, {"measurement": "right ventricular systolic pressure (RVSP)", "setting": "[1]", "value": "significantly decreased"}]}
{"molecule": "COc1cc2c(cc1-c1c(C)noc1C)ncc1[nH]c(=O)n([C@H](C)c3ccccn3)c12", "note": "[I-BET151]", "values": [{"measurement": "expression of Cluster 15 members (SLC9A3R1, LGALS3)", "setting": "PAECs [2]", "value": "reversed"}]}
{"molecule": "CCNC(=O)C[C@@H]1N=C(c2ccc(Cl)cc2)c2cc(OC)ccc2-n2c(C)nnc21", "note": "[I-BET762]", "values": [{"measurement": "cleaved caspase-3 (apoptosis)", "setting": "[3]; [7]", "value": "reduced downstream apoptosis; also recorded: reversed the 3 week hypoxia-dependent increases"}, {"measurement": "heart rate", "setting": "[3]; [7]", "value": "without significant effect"}, {"measurement": "pulmonary vascular LGALS8 expression", "setting": "[3]; [7]", "value": "robustly decreased; also recorded: reversed the 3 week hypoxia-dependent increases"}, {"measurement": "pulmonary vascular muscularization (α-SMA)", "setting": "[3]; [7]", "value": "reduced; also recorded: reversed the 3 week hypoxia-dependent increases"}, {"measurement": "right ventricular systolic pressure (RVSP)", "setting": "[3]; [7]", "value": "reduced; also recorded: reversed the 3 week hypoxia-dependent increases"}, {"measurement": "LGALS8", "setting": "[3]; normoxic mice, similar dosing, mean±SEM, vehicle control 1±0.02, p=NS", "value": "1.08±0.03", "unit": "fold change"}, {"measurement": "LGALS8-L transcript", "setting": "PAECs [2]; IL-1β", "value": "reversed the alterations"}, {"measurement": "expression of C15 genes LGALS3, LGALS8, DAG1, SLC9A3R1 (extent of reversal)", "setting": "PAECs [2]; IL-1β", "value": "near complete reversal"}, {"measurement": "expression of CD47, ABCC4 and DAG1", "setting": "PAECs [2]; IL-1β", "value": "all rescued"}, {"measurement": "expression of Cluster 15 (C15) gene galectin-8 (LGALS8)", "setting": "PAECs [2]; IL-1β", "value": "reversed the IL-1β-induced increases"}, {"measurement": "LGALS8-L transcript", "setting": "PAECs [2]; IL-1β, listed as I-BET", "value": "reversed by I-BET"}, {"measurement": "LGALS8-M transcript", "setting": "PAECs [2]; IL-1β, listed as I-BET", "value": "not altered by I-BET"}, {"measurement": "expression of Cluster 15 members (SLC9A3R1, LGALS3)", "setting": "PAECs [2]", "value": "reversed"}, {"measurement": "LGALS8 in pulmonary arterioles (immunofluorescence)", "setting": "[4]; I-BET762 30 mg/kg daily i.p. Days 21-35", "value": "decreased"}, {"measurement": "arteriolar muscularization (α-SMA)", "setting": "[4]; [8]", "value": "reduced"}, {"measurement": "cleaved caspase-3 (CC-3), endothelial apoptosis", "setting": "[4]; [8]", "value": "reduced downstream apoptosis; also recorded: decreased"}, {"measurement": "right ventricular systolic pressure (RVSP)", "setting": "[4]; [8]", "value": "reduced"}, {"measurement": "mitochondrial superoxide (O2−) levels, MitoSOX Red", "setting": "PAECs [5]; [9]", "value": "reversed the IL-1β-induced increases; also recorded: reversed by I-BET762"}, {"measurement": "mitochondrial superoxide (O2−) levels, MitoSOX Red", "setting": "PAECs [5]; [10]", "value": "reduced the IL-1β-dependent increase"}, {"measurement": "mitochondrial superoxide (O2−) levels, MitoSOX Red", "setting": "PAECs [5]; hypoxia 24 h, vs vehicle control", "value": "reversed the hypoxia-induced increases"}, {"measurement": "apoptosis, caspase-3/7 activity", "setting": "PAECs [6]; [9]", "value": "reversed the IL-1β-induced increases"}, {"measurement": "apoptosis, caspase-3/7 activity", "setting": "PAECs [6]; [10]", "value": "reduced the IL-1β-dependent increase"}, {"measurement": "apoptosis, caspase-3/7 activity", "setting": "PAECs [6]; hypoxia 24 h, I-BET vs vehicle control", "value": "reversed the hypoxia-induced increases"}, {"measurement": "LGALS8-L protein (immunoblot densitometry)", "setting": "LGALS8", "value": "followed its mRNA expression; also recorded: reversed the IL-1β-induced increase"}, {"measurement": "LGALS8-M protein (immunoblot densitometry)", "setting": "LGALS8", "value": "no significant difference"}]}
{"molecule": "CC(C)C[C@@H](C=O)NC(=O)[C@H](CC(C)C)NC(=O)[C@H](CC(C)C)NC(=O)OCc1ccccc1", "note": "[MG132] (Cbz-Leu-Leu-Leu-aldehyde)", "values": [{"measurement": "GSTP1 and ISCU glutathionylation", "setting": "ISCU", "value": "without affecting GSTP1 or glutathionylation"}, {"measurement": "ISCU protein", "setting": "ISCU", "value": "reversed the hypoxic down-regulation of ISCU; also recorded: reversed the hypoxia-induced reduction of ISCU"}]}
{"molecule": "O=C(Cc1ccccc1)Nc1nnc(NC2CCN(c3nnc(NC(=O)CC4CC4)s3)CC2)s1", "note": "[UPGL00064]", "values": [{"measurement": "Fulton index, compared with CB-839", "setting": "[1]; 10 mg/kg daily i.p. Days 7-21", "value": "more robust trend toward lower Fulton index"}, {"measurement": "RVSP, compared with CB-839", "setting": "[1]; 10 mg/kg daily i.p. Days 7-21", "value": "more robust trend toward lower RVSP"}, {"measurement": "Fulton index", "setting": "[1]", "value": "significantly decreased"}, {"measurement": "right ventricular systolic pressure (RVSP)", "setting": "[1]", "value": "significantly decreased"}]}
{"molecule": "B1", "values": [{"measurement": "mitochondrial O2−: effect of rhGal8 on the I-BET-induced attenuation", "setting": "PAECs [5]; [11]", "value": "reduced the ability of I-BET to decrease; also recorded: reversed the I-BET-induced attenuation; also recorded: attenuated"}, {"measurement": "mitochondrial superoxide", "setting": "PAECs [5]; rhGal8 alone", "value": "alone had no effect"}, {"measurement": "caspase 3/7 activity (apoptosis): effect of rhGal8 on the I-BET-induced attenuation", "setting": "PAECs [6]; [11]", "value": "reduced the ability of I-BET to decrease; also recorded: reversed the I-BET-induced attenuation"}, {"measurement": "apoptosis", "setting": "PAECs [6]; rhGal8 alone", "value": "alone had no effect"}]}
